Experimental data: ChEMBL document CHEMBL5375989, “Pioneering 4,11-Dioxo-4,11-dihydro-1H-anthra[2,3-d]imidazol-3-ium Compounds as Promising Survivin Inhibitors by Targeting ILF3/NF110 for Cancer Therapy” (J Med Chem, 2023)

Legend:
5637 = test: cells; conditions: Homo sapiens, 5637, 48 h
Description: Antiproliferative activity against human 5637 cells assessed as inhibition of cell growth measured after 48 hrs by MTT assay

[1] = Toxicity in BALB/c mouse assessed as morphological changes in spleen at 2 to 4 mg/kg by H and E staining based analysis; type: organism-based; conditions: in vivo, dose 2-4 mg/kg
A549 [2] = test: Induction of apoptosis in human A549 cells assessed as viable cells at 0.25 uM measured after 48 hrs by annexin V and PI staining based flow cytometry analysis (reference value: 93.3%); type: functional; conditions: Homo sapiens, A549, 48 h, read-out: Activity
HUVEC = test: Antiproliferative activity against human HUVEC cells assessed as inhibition of cell growth measured after 48 hrs by MTT assay; type: toxicity, cell-based; conditions: huvec
MRC5 = test: Antiproliferative activity against human MRC5 cells assessed as inhibition of cell growth measured after 48 hrs by MTT assay; type: toxicity, cell-based; conditions: mrc5
A549 [3] = test: Induction of apoptosis in human A549 cells assessed as viable cells at 0.04 uM measured after 48 hrs by annexin V and PI staining based flow cytometry analysis (reference value: 93.3%); type: functional; conditions: Homo sapiens, A549, 48 h, read-out: Activity
A549 [4] = test: Induction of apoptosis in human A549 cells assessed as necrotic cells at 0.25 uM measured after 48 hrs by annexin V and PI staining based flow cytometry analysis (reference value: 1.47%); type: functional
A549 [5] = test: Induction of apoptosis in human A549 cells assessed as early apoptotic cells at 0.04 uM measured after 48 hrs by annexin V and PI staining based flow cytometry analysis (reference value: 0.71%); type: functional
A549 [6] = test: Antiproliferative activity against survivin silenced human A549 cells assessed as inhibition of cell growth measured after 48 hrs by MTT assay; type: functional, cell-based; conditions: A549, 48 h
NCI-H460 = test: Antiproliferative activity against human NCI-H460 cells assessed as inhibition of cell growth measured after 48 hrs by MTT assay; type: functional, cell-based; conditions: nci-h460
A549 [7] = test: Inhibition of colony formation in human A549 cells assessed as suppression of colony formation at 5 nM replaced with fresh medium for every 72 hrs and measured for 15 days by crystal violet staining based assay relative to control; type: functional; conditions: A549, 360 h, time 15 day
[8] = Toxicity in BALB/c nude mouse assessed as dermatitis at 4 mg/kg, sc administered every 2 days for 14 days; type: organism-based; conditions: in vivo, 336 h, time 14 day
A549 [9] = test: Induction of apoptosis in human A549 cells assessed as viable cells at 0.1 uM measured after 48 hrs by annexin V and PI staining based flow cytometry analysis (reference value: 93.3%); type: functional; conditions: Homo sapiens, A549, 48 h, read-out: Activity
[10] = Toxicity in BALB/c mouse assessed as morphological changes in lung at 2 to 4 mg/kg by H and E staining based analysis; type: organism-based; conditions: in vivo, dose 2-4 mg/kg
BXPC-3 = test: Antiproliferative activity against human BXPC-3 cells assessed as inhibition of cell growth measured after 48 hrs by MTT assay; type: functional, cell-based; conditions: bxpc-3
[11] = Selectivity index, ratio of IC50 for mouse L929 cells to IC50 for human A549 cells; type: toxicity; conditions: L929 cells and A549 cells, read-out: Ratio IC50
A549 [12] = test: Induction of apoptosis in human A549 cells assessed as early apoptotic cells at 0.25 uM measured after 48 hrs by annexin V and PI staining based flow cytometry analysis (reference value: 0.71%); type: functional

SMILES: Cn1c[n+](C)c2c1C(=O)c1cc3ccccc3cc1C2=O.[I-]
- IC50 5637: 0.18 µM
- Activity [1]: Non-Toxic
- viability at 0.25 µM (A549 [2]): 3.28%
- IC50 (HUVEC): 6.66 µM
- IC50 (MRC5): 6.9 µM
- viability at 0.04 µM (A549 [3]): 27.8%
- Activity (A549 [4]): 4.32%
- Activity (A549 [5]): 6.08%
- IC50 (A549 [6]): 0.98 µM
- IC50 (NCI-H460): 0.14 µM
- inhibition at 0.005 µM (A549 [7]): 100%
- Activity [8]: Non-Toxic
- viability at 0.1 µM (A549 [9]): 8.7%
- Activity [10]: Non-Toxic
- IC50 (BXPC-3): 0.07 µM
- selectivity ratio [11]: 2390
- Activity (A549 [12]): 2.37%
